Experimental data: patent US8586550B2, “Thiazole derivatives as SGLT2 inhibitors and pharmaceutical composition comprising same” (Green Cross Corporation, priority 2010, dated 2013)

What follows are compounds tested against T1, Human SGLT2 (hSGLT2) (Homo sapiens, UniProt P31639) (assay: Sodium-dependent glucose transport (14C-AMG uptake) assay in CHO cells stably expressing hSGLT2). Conditions: CHO cells expressing hSGLT2, 14C-AMG uptake, 37° C. for 2 h; single determinations; read-out: hSGLT2 Inhibitory Activity IC50.
T1 construct: expressed in transfected cells
T1 sequence (P31639 1-672): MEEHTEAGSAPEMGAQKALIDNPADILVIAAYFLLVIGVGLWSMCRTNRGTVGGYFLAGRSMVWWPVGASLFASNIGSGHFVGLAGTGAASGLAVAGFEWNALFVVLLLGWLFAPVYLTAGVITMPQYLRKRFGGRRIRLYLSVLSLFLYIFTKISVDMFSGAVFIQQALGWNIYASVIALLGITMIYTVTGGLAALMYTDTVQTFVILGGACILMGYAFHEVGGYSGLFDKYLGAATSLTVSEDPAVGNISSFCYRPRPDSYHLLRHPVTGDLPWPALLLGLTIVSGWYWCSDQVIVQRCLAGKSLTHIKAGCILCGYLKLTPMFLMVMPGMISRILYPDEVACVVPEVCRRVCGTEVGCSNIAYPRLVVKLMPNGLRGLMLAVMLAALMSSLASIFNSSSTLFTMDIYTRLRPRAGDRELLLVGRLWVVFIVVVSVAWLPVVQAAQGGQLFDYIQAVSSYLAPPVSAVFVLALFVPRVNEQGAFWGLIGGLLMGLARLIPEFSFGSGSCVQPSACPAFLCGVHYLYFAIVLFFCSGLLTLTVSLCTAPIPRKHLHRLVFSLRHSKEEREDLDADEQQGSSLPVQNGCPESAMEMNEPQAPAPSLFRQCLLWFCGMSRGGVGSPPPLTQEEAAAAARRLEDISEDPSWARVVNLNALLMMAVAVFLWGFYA
Assay type: cell-based
Method in brief: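 CHO cells stably expressing human SGLT2, preincubated 10 min at 37 °C in sodium-free choline buffer, then 2 h at 37 °C in Na+ buffer with 1 mM AMG plus 8 μM 14C-AMG and inhibitor. Washed cells counted by scintillation; IC50 by nonlinear regression.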

Row | Compound | IC50 [nM]
1 | OC[C@H]1O[C@@H](c2ccc(Cl)c(Cc3ncc(-c4nncs4)s3)c2)[C@H](O)[C@@H](O)[C@@H]1O [Example 107, (2S,3R,4R,5S,6R)-2-(3-((5-(1,3,4-Thiadiazol-2-yl)thiazol-2-yl)methyl)-4-chlorophenyl)-6-(hydroxymethyl)-tetrahydro-2H-pyran-3,4,5-triol] | 14
2 | N#Cc1ccc([C@@H]2O[C@H](CO)[C@@H](O)[C@H](O)[C@H]2O)cc1Cc1ncc(-c2ccco2)s1 [Example 108, 2-((5-(Furan-2-yl)thiazol-2-yl)methyl)-4-((2S,3R,4R,5S,6R)-3,4,5-trihydroxy-6-(hydroxymethyl)-tetrahydro-2H-pyran-2-yl)benzonitrile] | 36.7
3 | OC[C@H]1O[C@@H](c2ccc(C3CC3)c(Cc3ncc(-c4ccco4)s3)c2)[C@H](O)[C@@H](O)[C@@H]1O [Example 110, (2S,3R,4R,5S,6R)-2-(4-Cyclopropyl-3-((5-(furan-2-yl)thiazol-2-yl)methyl)phenyl)-6-(hydroxymethyl)-tetrahydro-2H-pyran-3,4,5-triol] | 54.8
4 | OC[C@H]1O[C@@H](c2cccc(Cc3ncc(-c4ccco4)s3)c2)[C@H](O)[C@@H](O)[C@@H]1O [Example 111, (2S,3R,4R,5S,6R)-2-(3-((5-(Furan-2-yl)thiazol-2-yl)methyl)phenyl)-6-(hydroxymethyl)-tetrahydro-2H-pyran-3,4,5-triol] | 22.6
5 | OC[C@H]1O[C@@H](c2cc(Cc3ncc(-c4ccco4)s3)c(Cl)cc2O)[C@H](O)[C@@H](O)[C@@H]1O [Example 112, (2S,3R,4R,5S,6R)-2-(4-Chloro-5-((5-(furan-2-yl)thiazol-2-yl)methyl)-2-hydroxyphenyl)-6-(hydroxymethyl)-tetrahydro-2H-pyran-3,4,5-triol] | 0.797
6 | COCCOc1cc(Cl)c(Cc2ncc(-c3ccco3)s2)cc1[C@@H]1O[C@H](CO)[C@@H](O)[C@H](O)[C@H]1O [Example 117, (2S,3R,4R,5S,6R)-2-(4-Chloro-5-((5-(furan-2-yl)thiazol-2-yl)methyl)-2-(2-methoxyethoxy)phenyl)-6-(hydroxymethyl)-tetrahydro-2H-pyran-3,4,5-triol] | 5.55
7 | OCCOc1cc(Cl)c(Cc2ncc(-c3ccco3)s2)cc1[C@@H]1O[C@H](CO)[C@@H](O)[C@H](O)[C@H]1O [Example 121, (2S,3R,4R,5S,6R)-2-(4-Chloro-5-((5-(furan-2-yl)thiazol-2-yl)methyl)-2-(2-hydroxyethoxy)phenyl)-6-(hydroxymethyl)tetrahydro-2H-pyran-3,4,5-triol] | 1.51
8 | OC[C@H]1O[C@@H](c2cc(Cc3ncc(-c4ccco4)s3)c(Cl)cc2OCCn2cncn2)[C@H](O)[C@@H](O)[C@@H]1O [Example 122, (2S,3R,4R,5S,6R)-2-(2-(2-(1H-1,2,4-Triazol-1-yl)ethoxy)-4-chloro-5-((5-(furan-2-yl)thiazol-2-yl)methyl)phenyl)-6-(hydroxymethyl)-tetrahydro-2H-pyran-3,4,5-triol] | 131
9 | OC[C@H]1O[C@@H](c2cc(Cc3ncc(-c4ccc(F)cc4)s3)c(O)c3ccccc23)[C@H](O)[C@@H](O)[C@@H]1O [Example 123, (2S,3R,4R,5S,6R)-2-(3-((5-(4-Fluorophenyl)thiazol-2-yl)methyl)-4-hydroxynaphthalen-1-yl)-6-(hydroxymethyl)-tetrahydro-2H-pyran-3,4,5-triol] | 58.2
10 | OC[C@H]1O[C@@H](c2cc(Cc3ncc(-c4cccs4)s3)c(O)c3ccccc23)[C@H](O)[C@@H](O)[C@@H]1O [Example 124, (2S,3R,4R,5S,6R)-2-(4-Hydroxy-3-((5-(thiophen-2-yl)thiazol-2-yl)methyl)naphthalen-1-yl)-6-(hydroxymethyl)-tetrahydro-2H-pyran-3,4,5-triol] | 7.97
11 | OC[C@H]1O[C@@H](c2cc(Cc3ncc(-c4ccccc4)s3)c(O)c3ccccc23)[C@H](O)[C@@H](O)[C@@H]1O [Example 125, (2S,3R,4R,5S,6R)-2-(4-Hydroxy-3-((5-phenylthiazol-2-yl)methyl)naphthalen-1-yl)-6-(hydroxymethyl)-tetrahydro-2H-pyran-3,4,5-triol] | 30.6
12 | CCCc1cnc(Cc2cc([C@@H]3O[C@H](CO)[C@@H](O)[C@H](O)[C@H]3O)c3ccccc3c2O)s1 [Example 126, (2S,3R,4R,5S,6R)-2-(4-Hydroxy-3-((5-propylthiazol-2-yl)methyl)naphthalen-1-yl)-6-(hydroxymethyl)-tetrahydro-2H-pyran-3,4,5-triol] | 67.3
13 | CCCCCCCc1cnc(Cc2cc([C@@H]3O[C@H](CO)[C@@H](O)[C@H](O)[C@H]3O)c3ccccc3c2O)s1 [Example 127, (2S,3R,4R,5S,6R)-2-(3-((5-Heptylthiazol-2-yl)methyl)-4-hydroxynaphthalen-1-yl)-6-(hydroxymethyl)-tetrahydro-2H-pyran-3,4,5-triol] | 32.8
14 | CCOc1cnc(Cc2cc([C@@H]3O[C@H](CO)[C@@H](O)[C@H](O)[C@H]3O)c3ccccc3c2O)s1 [Example 128, (2S,3R,4R,5S,6R)-2-(3-((5-Ethoxythiazol-2-yl)methyl)-4-hydroxynaphthalen-1-yl)-6-(hydroxymethyl)-tetrahydro-2H-pyran-3,4,5-triol] | 116
15 | OC[C@H]1O[C@]2(OCc3cc(Cl)c(C4(c5ncc(-c6cccs6)s5)CC4)cc32)[C@H](O)[C@@H](O)[C@@H]1O [Example 129, (1S,3′R,4′S,5′S,6′R)-5-Chloro-6′-(hydroxymethyl)-6-(1-(5-(thiophen-2-yl)thiazole-2-yl)cyclopropyl)-3′,4′,5′,6′-tetrahydro-3H-spiro[isobenzofuran-1,2′-pyran]-3′,4′,5′-triol] | 160
16 | OC[C@H]1O[C@@H](n2cc(Cc3ncc(-c4ccco4)s3)c3ccccc32)[C@H](O)[C@@H](O)[C@@H]1O [Example 130, (2R,3R,4S,5S,6R)-2-(3-((5-(Furan-2-yl)thiazol-2-yl)methyl)-1H-indol-1-yl)-6-(hydroxymethyl)-tetrahydro-2H-pyran-3,4,5-triol] | 8.75
17 | OC[C@H]1O[C@@H](n2cc(Cc3ncc(-c4cccs4)s3)c3ccccc32)[C@H](O)[C@@H](O)[C@@H]1O [Example 131, (2R,3S,4S,5R,6R)-2-(Hydroxymethyl)-6-(3-((5-(thiophen-2-yl)thiazol-2-yl)methyl)-1H-indol-1-yl)tetrahydro-2H-pyran-3,4,5-triol] | 13.8
18 | Cc1cnc(Cc2cn([C@@H]3O[C@H](CO)[C@@H](O)[C@H](O)[C@H]3O)c3ccccc23)s1 [Example 132, (2R,3S,4S,5R,6R)-2-(Hydroxymethyl)-6-(3-((5-methylthiazol-2-yl)methyl)-1H-indol-1-yl)tetrahydro-2H-pyran-3,4,5-triol] | 162
19 | CCc1cnc(Cc2cn([C@@H]3O[C@H](CO)[C@@H](O)[C@H](O)[C@H]3O)c3ccccc23)s1 [Example 133, (2R,3R,4S,5S,6R)-2-(3-((5-Ethylthiazol-2-yl)methyl)-1H-indol-1-yl)-6-(hydroxymethyl)tetrahydro-2H-pyran-3,4,5-triol] | 180
20 | CCCc1cnc(Cc2cn([C@@H]3O[C@H](CO)[C@@H](O)[C@H](O)[C@H]3O)c3ccccc23)s1 [Example 134, (2R,3S,4S,5R,6R)-2-(Hydroxymethyl)-6-(3((5-propylthiazol-2-yl)methyl)-1H-indol-1-yl)tetrahydro-2H-pyran-3,4,5-triol] | 108
21 | CCCCc1cnc(Cc2cn([C@@H]3O[C@H](CO)[C@@H](O)[C@H](O)[C@H]3O)c3ccccc23)s1 [Example 135, (2R,3R,4S,5S,6R)-2-(3((5-Butylthiazol-2-yl)methyl)-1H-indol-1-yl)-6-(hydroxymethyl)tetrahydro-2H-pyran-3,4,5-triol] | 123
22 | CCCCCc1cnc(Cc2cn([C@@H]3O[C@H](CO)[C@@H](O)[C@H](O)[C@H]3O)c3ccccc23)s1 [Example 136, (2R,3S,4S,5R,6R)-2-(Hydroxymethyl)-6-(3-((5-pentylthiazol-2-yl)methyl)-1H-indol-1-yl)tetrahydro-2H-pyran-3,4,5-triol] | 210
23 | OC[C@H]1O[C@@H](c2cn(Cc3ncc(-c4ccccc4)s3)c3ccccc23)[C@H](O)[C@@H](O)[C@@H]1O [Example 137, (2R,3S,4R,5R,6S)-2-(Hydroxymethyl)-6-(1-((5-phenylthiazol-2-yl)methyl)-1H-indol-3-yl)-tetrahydro-2H-pyran-3,4,5-triol] | 124
24 | Cc1ccc(S(=O)(=O)OC[C@H]2O[C@@H](c3ccc(Cl)c(Cc4ncc(-c5ccco5)s4)c3)[C@H](O)[C@@H](O)[C@@H]2O)cc1 [Example 138, ((2R,3S,4R,5R,6S)-6-(4-Chloro-3-((5-(furan-2-yl)thiazol-2-yl)methyl)phenyl)-3,4,5-trihydroxy-tetrahydro-2H-pyran-2-yl)methyl 4-methylbenzenesulfonate] | 156
25 | COC[C@H]1O[C@@H](c2ccc(Cl)c(Cc3ncc(-c4ccco4)s3)c2)[C@H](O)[C@@H](O)[C@@H]1O [Example 139, (2S,3R,4R,5S,6R)-2-(4-Chloro-3-((5-(furan-2-yl)thiazol-2-yl)methyl)phenyl)-6-(methoxymethyl)-tetrahydro-2H-pyran-3,4,5-triol] | 23.5
